Data: patent publication US11020399B2, “Intermediates useful in the synthesis of compounds as modulators of protein kinases” (Rhizen Pharmaceuticals SA, priority 2011, dated 2021)

Columns and labels:
PI3kα = PI3kα (Homo sapiens, UniProt P42336); assay: Fluorescent (HTRF) determination of PI3 kinase enzyme activity, PI3Kα; assay type: biochemical; details: 1 uM
In short: (§1)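 Compounds tested at 1 μM on α and β isoforms and at 0.3 or 0.1 μM on γ and δ, with percent inhibition from blank and enzyme controls, plus IC50 fits. Room-temperature reaction: 10 min enzyme–compound preincubation in MgCl2/DTT buffer with 1.38 μM PIP2, then 30 min after 400 μM ATP addition; PIP3 read by HTRF (665/620 nm).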

PI3kβ = PI3kβ (Homo sapiens, UniProt P42338); assay: Fluorescent (HTRF) determination of PI3 kinase enzyme activity, PI3Kβ; assay type: biochemical; details: 1 uM
Sequence of PI3kβ (P42338 whole entry): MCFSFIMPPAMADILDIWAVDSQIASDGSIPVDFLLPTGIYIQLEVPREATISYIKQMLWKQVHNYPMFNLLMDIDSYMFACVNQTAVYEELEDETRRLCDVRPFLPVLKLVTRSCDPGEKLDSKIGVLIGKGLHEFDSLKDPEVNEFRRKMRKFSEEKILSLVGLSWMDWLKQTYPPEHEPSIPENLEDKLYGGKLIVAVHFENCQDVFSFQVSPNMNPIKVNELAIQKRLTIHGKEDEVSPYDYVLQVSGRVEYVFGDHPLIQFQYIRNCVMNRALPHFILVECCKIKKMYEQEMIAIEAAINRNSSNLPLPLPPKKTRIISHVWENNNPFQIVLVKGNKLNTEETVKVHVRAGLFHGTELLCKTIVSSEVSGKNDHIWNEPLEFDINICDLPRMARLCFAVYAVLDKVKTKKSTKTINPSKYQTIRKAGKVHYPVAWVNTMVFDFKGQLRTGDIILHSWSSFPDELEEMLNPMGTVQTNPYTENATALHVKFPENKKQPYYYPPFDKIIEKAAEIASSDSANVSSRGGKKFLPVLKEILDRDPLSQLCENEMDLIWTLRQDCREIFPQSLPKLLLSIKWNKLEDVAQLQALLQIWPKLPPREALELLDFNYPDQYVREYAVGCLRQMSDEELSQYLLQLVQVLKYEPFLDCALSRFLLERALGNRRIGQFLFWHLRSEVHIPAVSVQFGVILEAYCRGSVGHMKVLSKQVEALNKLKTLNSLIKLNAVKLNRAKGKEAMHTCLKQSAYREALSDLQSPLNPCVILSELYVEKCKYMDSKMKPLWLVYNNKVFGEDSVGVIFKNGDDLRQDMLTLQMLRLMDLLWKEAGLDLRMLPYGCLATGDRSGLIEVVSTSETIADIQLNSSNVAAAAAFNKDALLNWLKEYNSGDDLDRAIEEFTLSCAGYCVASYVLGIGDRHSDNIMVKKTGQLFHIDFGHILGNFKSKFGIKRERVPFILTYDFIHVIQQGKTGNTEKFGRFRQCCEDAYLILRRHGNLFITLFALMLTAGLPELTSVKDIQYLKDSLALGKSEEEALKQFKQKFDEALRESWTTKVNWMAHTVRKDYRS
Sequence of PI3kβ (P27986 whole entry partner): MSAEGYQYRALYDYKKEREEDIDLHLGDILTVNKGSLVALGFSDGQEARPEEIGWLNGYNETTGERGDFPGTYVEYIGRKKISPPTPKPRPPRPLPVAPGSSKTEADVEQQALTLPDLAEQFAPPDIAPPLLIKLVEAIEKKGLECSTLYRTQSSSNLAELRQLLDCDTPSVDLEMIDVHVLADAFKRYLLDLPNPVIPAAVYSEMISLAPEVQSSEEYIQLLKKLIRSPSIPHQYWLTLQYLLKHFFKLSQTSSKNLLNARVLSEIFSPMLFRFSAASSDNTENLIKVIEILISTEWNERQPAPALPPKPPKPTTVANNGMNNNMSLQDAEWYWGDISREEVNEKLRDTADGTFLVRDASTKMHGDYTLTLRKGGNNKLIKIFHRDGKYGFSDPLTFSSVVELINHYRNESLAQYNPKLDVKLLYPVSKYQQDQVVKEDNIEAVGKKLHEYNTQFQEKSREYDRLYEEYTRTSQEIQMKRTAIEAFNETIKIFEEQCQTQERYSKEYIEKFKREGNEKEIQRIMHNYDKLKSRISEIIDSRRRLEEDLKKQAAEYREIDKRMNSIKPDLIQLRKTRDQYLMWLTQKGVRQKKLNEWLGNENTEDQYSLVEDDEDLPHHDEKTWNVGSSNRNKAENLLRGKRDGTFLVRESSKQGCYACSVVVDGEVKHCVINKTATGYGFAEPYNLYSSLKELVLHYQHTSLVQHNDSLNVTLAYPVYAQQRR
In short: as §1

PI3kγ = PI3kγ (Homo sapiens, UniProt P48736); assay: Fluorescent (HTRF) determination of PI3 kinase enzyme activity, PI3Kγ; assay type: biochemical; details: 100 nM (Examples 60-137)
Sequence of PI3kγ (P48736 whole entry): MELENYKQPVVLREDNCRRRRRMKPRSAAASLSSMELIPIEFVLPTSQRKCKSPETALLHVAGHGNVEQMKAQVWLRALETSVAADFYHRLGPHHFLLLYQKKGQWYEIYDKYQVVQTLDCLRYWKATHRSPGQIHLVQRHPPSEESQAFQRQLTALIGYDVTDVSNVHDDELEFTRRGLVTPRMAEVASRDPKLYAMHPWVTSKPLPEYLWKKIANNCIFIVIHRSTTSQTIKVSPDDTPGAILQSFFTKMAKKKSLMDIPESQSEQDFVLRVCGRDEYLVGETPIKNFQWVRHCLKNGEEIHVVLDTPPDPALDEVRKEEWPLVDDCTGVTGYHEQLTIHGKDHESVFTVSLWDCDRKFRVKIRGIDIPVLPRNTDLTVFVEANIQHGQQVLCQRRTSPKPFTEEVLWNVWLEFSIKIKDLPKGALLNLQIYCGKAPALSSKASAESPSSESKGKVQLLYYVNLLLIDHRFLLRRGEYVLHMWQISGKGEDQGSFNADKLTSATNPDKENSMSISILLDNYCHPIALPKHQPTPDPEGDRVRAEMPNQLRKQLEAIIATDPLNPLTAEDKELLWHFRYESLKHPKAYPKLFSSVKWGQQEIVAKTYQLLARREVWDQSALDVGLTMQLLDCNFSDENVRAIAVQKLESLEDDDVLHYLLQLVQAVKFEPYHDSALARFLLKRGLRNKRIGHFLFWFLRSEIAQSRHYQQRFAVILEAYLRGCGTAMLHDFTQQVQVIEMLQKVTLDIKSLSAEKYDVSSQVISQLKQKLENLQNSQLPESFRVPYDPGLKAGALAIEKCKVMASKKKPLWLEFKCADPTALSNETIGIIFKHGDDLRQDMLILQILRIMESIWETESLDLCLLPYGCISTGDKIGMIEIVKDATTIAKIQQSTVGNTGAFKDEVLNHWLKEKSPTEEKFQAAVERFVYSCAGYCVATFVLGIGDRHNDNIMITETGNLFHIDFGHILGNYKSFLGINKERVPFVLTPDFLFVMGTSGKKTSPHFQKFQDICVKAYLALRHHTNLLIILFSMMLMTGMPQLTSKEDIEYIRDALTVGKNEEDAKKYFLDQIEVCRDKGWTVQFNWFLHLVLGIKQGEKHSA
In short: as §1

PI3kδ = PI3kδ (Homo sapiens, UniProt O00329); assay: Fluorescent (HTRF) determination of PI3 kinase enzyme activity, PI3Kδ; assay type: biochemical; details: for inhibition at 0.1 µM: 100 nM (Examples 60-137)
Sequence of PI3kδ (O00329 whole entry): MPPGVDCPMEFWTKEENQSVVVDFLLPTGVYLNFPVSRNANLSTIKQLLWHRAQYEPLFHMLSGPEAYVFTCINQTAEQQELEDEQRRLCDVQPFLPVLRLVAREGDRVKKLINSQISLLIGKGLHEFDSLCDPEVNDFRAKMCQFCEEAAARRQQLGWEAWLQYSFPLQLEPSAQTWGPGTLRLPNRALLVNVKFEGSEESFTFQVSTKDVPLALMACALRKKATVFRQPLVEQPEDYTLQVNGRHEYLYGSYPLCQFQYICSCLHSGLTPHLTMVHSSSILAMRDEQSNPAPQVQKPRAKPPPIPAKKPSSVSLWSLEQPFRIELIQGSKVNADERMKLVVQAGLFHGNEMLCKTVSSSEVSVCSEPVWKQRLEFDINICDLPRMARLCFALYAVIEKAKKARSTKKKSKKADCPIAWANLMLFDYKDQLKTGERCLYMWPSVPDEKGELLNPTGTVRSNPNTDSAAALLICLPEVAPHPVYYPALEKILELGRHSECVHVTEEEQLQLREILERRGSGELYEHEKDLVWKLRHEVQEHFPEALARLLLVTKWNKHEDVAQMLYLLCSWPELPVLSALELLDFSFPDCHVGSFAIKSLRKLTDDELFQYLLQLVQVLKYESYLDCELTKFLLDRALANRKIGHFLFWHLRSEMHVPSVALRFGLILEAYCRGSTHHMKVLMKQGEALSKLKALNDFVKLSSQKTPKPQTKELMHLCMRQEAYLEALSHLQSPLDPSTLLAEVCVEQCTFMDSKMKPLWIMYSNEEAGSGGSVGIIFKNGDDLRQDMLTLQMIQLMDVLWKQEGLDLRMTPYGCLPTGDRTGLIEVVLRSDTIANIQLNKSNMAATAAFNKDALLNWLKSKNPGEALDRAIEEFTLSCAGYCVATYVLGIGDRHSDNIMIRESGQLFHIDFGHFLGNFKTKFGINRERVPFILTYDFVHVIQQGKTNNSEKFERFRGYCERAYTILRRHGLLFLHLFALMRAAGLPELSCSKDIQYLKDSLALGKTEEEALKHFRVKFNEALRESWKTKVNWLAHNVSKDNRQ
Sequence of PI3kδ (P27986 whole entry partner): as the sequence (P27986 whole entry partner) above
In short: as §1

Sequence of PI3kα (P42336 whole entry, canonical isoform): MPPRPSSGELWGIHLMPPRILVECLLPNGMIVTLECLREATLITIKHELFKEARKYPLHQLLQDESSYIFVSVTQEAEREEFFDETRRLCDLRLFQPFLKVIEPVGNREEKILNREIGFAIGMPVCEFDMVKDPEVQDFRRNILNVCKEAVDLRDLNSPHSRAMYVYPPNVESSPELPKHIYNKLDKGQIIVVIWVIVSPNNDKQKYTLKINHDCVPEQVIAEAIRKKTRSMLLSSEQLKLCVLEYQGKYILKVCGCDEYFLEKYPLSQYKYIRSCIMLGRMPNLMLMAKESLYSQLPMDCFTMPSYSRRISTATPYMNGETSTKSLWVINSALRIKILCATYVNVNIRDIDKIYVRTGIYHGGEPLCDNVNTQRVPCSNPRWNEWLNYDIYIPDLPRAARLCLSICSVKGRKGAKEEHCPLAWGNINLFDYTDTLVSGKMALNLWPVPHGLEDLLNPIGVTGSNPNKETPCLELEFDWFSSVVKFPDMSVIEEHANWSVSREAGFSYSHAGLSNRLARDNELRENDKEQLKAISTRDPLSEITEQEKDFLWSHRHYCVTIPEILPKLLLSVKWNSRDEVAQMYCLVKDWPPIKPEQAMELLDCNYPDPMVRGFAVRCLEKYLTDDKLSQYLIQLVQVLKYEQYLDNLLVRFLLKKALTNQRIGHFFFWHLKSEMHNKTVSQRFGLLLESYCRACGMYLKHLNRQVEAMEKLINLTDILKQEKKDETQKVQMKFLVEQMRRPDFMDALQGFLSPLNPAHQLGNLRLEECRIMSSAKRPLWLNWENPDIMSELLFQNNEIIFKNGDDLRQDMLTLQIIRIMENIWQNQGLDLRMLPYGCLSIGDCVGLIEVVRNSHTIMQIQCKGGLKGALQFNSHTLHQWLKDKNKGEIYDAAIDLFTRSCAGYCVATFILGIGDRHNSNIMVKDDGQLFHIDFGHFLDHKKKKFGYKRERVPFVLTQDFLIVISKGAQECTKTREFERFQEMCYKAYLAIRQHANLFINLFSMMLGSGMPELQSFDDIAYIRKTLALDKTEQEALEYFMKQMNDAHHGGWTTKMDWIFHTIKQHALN
Sequence of PI3kα (P27986 whole entry partner, canonical isoform): as the sequence (P27986 whole entry partner) above

Structure (SMILES)	inhibition at 1 µM (PI3kα)	inhibition at 1 µM (PI3kβ)	inhibition at 0.1 µM (PI3kγ)	inhibition at 0.1 µM (PI3kδ)	melting point	IC50 (PI3kδ)
CC(c1oc2cccc(F)c2c(=O)c1-c1cccc(F)c1)n1nc(-c2cnc3[nH]ccc3c2)c2c(N)ncnc21 (centres unmarked) [Example 63, 2-(1-(4-amino-3-(1H-pyrrolo[2,3-b]pyridin-5-yl)-1H-pyrazolo[3,4-d]pyrimidin-1-yl)ethyl)-5-fluoro-3-(3-fluorophenyl)-4H-chromen-4-one]	25 to 50%	0 to 25%	25 to 50%	25 to 50%	303 to 306 °C	
CC(c1oc2cccc(F)c2c(=O)c1-c1cccc(F)c1)n1nc(C#CCO)c2c(N)ncnc21 (centres unmarked) [Example 66, 2-(1-(4-amino-3-(3-hydroxyprop-1-ynyl)-1H-pyrazolo[3,4-d]pyrimidin-1-yl)ethyl)-5-fluoro-3-(3-fluorophenyl)-4H-chromen-4-one]	25 to 50%	25 to 50%	25 to 50%	25 to 50%	220 to 222 °C	
CC(c1oc2cccc(F)c2c(=O)c1-c1cccc(F)c1)n1nc(-c2ccc(CNC(=O)OC(C)(C)C)o2)c2c(N)ncnc21 (centres unmarked) [Example 74, tert-butyl (5-(4-amino-1-(1-(5-fluoro-3-(3-fluorophenyl)-4-oxo-4H-chromen-2-yl)ethyl)-1H-pyrazolo[3,4-d]pyrimidin-3-yl)furan-2-yl)methylcarbamate]	0 to 25%	25 to 50%	25 to 50%	50 to 75%	163 to 166 °C	
CC(c1oc2cccc(F)c2c(=O)c1-c1cccc(F)c1)n1nc(-c2ccc(CN3CCOCC3)s2)c2c(N)ncnc21 (centres unmarked) [Example 76, 2-(1-(4-amino-3-(5-(morpholinomethyl)thiophen-2-yl)-1H-pyrazolo[3,4-d]pyrimidin-1-yl)ethyl)-5-fluoro-3-(3-fluorophenyl)-4H-chromen-4-one]	0 to 25%	25 to 50%	25 to 50%	25 to 50%	193 to 196 °C	
Cc1c2ccc(-c3nn(C(C)c4oc5cccc(F)c5c(=O)c4-c4cccc(F)c4)c4ncnc(N)c34)cc2nn1C (centres unmarked) [Example 80, 2-(1-(4-amino-3-(2,3-dimethyl-2H-indazol-6-yl)-1H-pyrazolo[3,4-d]pyrimidin-1-yl)ethyl)-5-fluoro-3-(3-fluorophenyl)-4H-chromen-4-one]	50 to 75%	25 to 50%	25 to 50%	50 to 75%	232 to 235 °C	

Other lines, results leading:

inhibition at 1 µM (PI3kα)	inhibition at 1 µM (PI3kβ)	inhibition at 0.1 µM (PI3kγ)	inhibition at 0.1 µM (PI3kδ)	melting point	IC50 (PI3kδ)	Structure (SMILES)
25 to 50%	50 to 75%	25 to 50%	50 to 75%	202 to 205 °C	50 to 100 nM	CC(c1oc2cccc(F)c2c(=O)c1-c1cccc(F)c1)n1nc(-c2ccc(-c3nnc(N)s3)cc2)c2c(N)ncnc21 (centres unmarked) [Example 77, 2-(1-(4-amino-3-(4-(5-amino-1,3,4-thiadiazol-2-yl)phenyl)-1H-pyrazolo[3,4-d]pyrimidin-1-yl)ethyl)-5-fluoro-3-(3-fluorophenyl)-4H-chromen-4-one]
25 to 50%	25 to 50%	25 to 50%	0 to 25%	220 to 224 °C		Cc1nn(C)c2cc(-c3nn(C(C)c4oc5cccc(F)c5c(=O)c4-c4cccc(F)c4)c4ncnc(N)c34)ccc12 (centres unmarked) [Example 79, 2-(1-(4-amino-3-(1,3-dimethyl-1H-indazol-6-yl)-1H-pyrazolo[3,4-d]pyrimidin-1-yl)ethyl)-5-fluoro-3-(3-fluorophenyl)-4H-chromen-4-one]
25 to 50%	25 to 50%	25 to 50%	50 to 75%	249 to 252 °C		CC(C)C(=O)Nc1ccc(-c2nn(C(C)c3oc4cccc(F)c4c(=O)c3-c3cccc(F)c3)c3ncnc(N)c23)cc1F (centres unmarked) [Example 81, N-(4-(4-amino-1-(1-(5-fluoro-3-(3-fluorophenyl)-4-oxo-4H-chromen-2-yl)ethyl)-1H-pyrazolo[3,4-d]pyrimidin-3-yl)-2-fluorophenyl)isobutyramide]
